The values below come from patent US20090318451A1, “[…] AGONISTS FOR THE TREATMENT OF PAIN” (Pfizer Inc., priority 2007, published 2009).

Read-outs that look alike come from different tables or passages of the source. Some results are limits rather than exact numbers.

Broadly, the EC50 is the concentration needed to bring the measured effect to its halfway point. Usually IC50 stands for the concentration that gives 50% inhibition. As a reminder, the Emax is the size of the effect at its maximum, as opposed to the concentration needed. In general, Ki refers to a measure of affinity in units of concentration, obtained from inhibition or displacement.

Data set [1] concerns Capsaicin-induced hyperalgesia. Put plainly: Capsaicin-induced hyperalgesia, static and dynamic allodynia endpoint. Format: in vivo, rat.
Data set [2] relates to Hotplate paw withdrawal latency (rats). Nature of the data set: Hotplate paw withdrawal latency. Format: in vivo, rat.
Data set [3] concerns CCI-induced static and dynamic allodynia (rats). Put plainly: Chronic constriction injury (CCI) of sciatic nerve, static and dynamic allodynia. It counts as in vivo, rat.
The target in data set [4] is T1, human dopamine D2long receptor (Homo sapiens, UniProt P14416).
T1 construct: expressed in transfected cells; host or cells: GH4C1 rat pituitary cells
Put plainly: Inhibition via dopamine D2 receptors of forskolin-stimulated adenylate cyclase activity (cAMP, GH4C1/hD2L cells). Format: cell-based.

Data set [5] has as its system Plantar surgery-induced static and dynamic allodynia (rats). Put plainly: Plantar surgery model of postsurgical pain, static and dynamic allodynia. It counts as in vivo, rat.
For data set [6], the target named is D2 dopamine receptor (Homo sapiens, UniProt P14416). Put plainly: In vitro binding (membrane preparation), human recombinant receptors, D2.
Data set [7] has as its target D1 (Homo sapiens, UniProt P21728). Put plainly: In vitro binding (membrane preparation), human recombinant receptors, D1.
Data set [8] addresses T2, human Dopamine D3 receptor (Homo sapiens, UniProt P35462).
T2 construct: expressed in transfected cells; host or cells: CHO (dihydrofolate reductase deficient), generated in house
Nature of the data set: Inhibition via dopamine D3 receptors of forskolin-stimulated adenylate cyclase activity (cAMP, hD3CHO cells). It counts as cell-based. Conditions: for functional selectivity for D3 over D2: D2 EC50 divided by D3 EC50, 10000 used where D2 EC50 >10000.

The nature of data set [9]: Free plasma concentration after oral dosing in pain model rats. Particulars: for peak free-plasma concentration / predicted free-plasma exposure: based on the known PK profile, 0.1 mg/kg.
Data set [10] concerns MIA-induced weight deficit (rats). Nature of the data set: MIA-induced weight-bearing deficit. Format: in vivo, rat.
For data set [11], the target named is T3, D4 dopamine receptor (Homo sapiens, UniProt P21917).
T3 construct: expressed in transfected cells
T3 sequence (P21917 1-419): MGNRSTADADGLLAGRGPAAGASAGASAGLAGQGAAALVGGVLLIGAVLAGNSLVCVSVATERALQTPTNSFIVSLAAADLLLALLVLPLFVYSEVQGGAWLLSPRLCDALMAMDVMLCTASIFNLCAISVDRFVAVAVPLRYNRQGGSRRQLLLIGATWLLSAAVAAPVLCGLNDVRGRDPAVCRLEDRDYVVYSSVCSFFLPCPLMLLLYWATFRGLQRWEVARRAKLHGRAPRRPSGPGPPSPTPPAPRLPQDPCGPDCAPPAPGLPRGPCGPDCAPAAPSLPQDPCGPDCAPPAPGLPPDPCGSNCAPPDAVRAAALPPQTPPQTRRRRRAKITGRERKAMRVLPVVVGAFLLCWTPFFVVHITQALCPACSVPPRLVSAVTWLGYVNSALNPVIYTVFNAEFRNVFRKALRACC
Nature of the data set: Functional inhibition of forskolin-stimulated cAMP accumulation in human recombinant cell lines, D4. Format: cell-based. On the technique in general: Cyclic AMP is a second messenger, typically raised through Gs and lowered through Gi signalling.

Data set [12] concerns the target T3, D4 dopamine receptor. Nature of the data set: In vitro binding (membrane preparation), human recombinant receptors, D4.
Data set [13] concerns MIA-induced static allodynia (rats). Nature of the data set: Monosodium iodoacetate (MIA)-induced static allodynia. Format: in vivo, rat.
For data set [14], the target named is D5 (Homo sapiens, UniProt P21918). Put plainly: In vitro binding (membrane preparation), human recombinant receptors, D5.
Data set [15] deals with D3 dopamine receptor (Homo sapiens, UniProt P35462). Put plainly: In vitro binding (membrane preparation), human recombinant receptors, D3.
Chain of D3 dopamine receptor (P35462 whole entry): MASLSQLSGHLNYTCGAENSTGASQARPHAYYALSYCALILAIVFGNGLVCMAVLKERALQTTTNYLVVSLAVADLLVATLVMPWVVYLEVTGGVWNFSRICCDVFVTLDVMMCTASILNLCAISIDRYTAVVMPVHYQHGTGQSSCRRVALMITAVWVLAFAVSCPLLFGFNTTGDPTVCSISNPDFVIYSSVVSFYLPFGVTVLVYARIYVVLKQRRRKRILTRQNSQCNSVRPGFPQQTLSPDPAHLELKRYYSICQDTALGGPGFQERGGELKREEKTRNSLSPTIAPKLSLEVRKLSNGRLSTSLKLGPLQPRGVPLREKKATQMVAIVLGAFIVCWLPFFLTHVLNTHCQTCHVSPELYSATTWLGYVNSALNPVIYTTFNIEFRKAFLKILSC

T2 sequence (P35462 whole entry): as above
T1 sequence (P14416 whole entry): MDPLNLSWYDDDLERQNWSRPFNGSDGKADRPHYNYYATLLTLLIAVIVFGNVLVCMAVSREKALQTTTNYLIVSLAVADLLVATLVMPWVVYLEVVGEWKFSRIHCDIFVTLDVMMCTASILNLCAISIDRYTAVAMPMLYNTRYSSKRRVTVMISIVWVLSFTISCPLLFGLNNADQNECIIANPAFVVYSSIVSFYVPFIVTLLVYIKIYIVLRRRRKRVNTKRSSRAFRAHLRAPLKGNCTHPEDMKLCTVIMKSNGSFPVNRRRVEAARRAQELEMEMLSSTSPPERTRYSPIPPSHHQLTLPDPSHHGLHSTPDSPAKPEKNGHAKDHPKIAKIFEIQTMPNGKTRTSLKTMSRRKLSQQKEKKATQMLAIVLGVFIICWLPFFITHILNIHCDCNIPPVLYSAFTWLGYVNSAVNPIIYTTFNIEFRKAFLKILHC
Chain of D1 (P21728 whole entry): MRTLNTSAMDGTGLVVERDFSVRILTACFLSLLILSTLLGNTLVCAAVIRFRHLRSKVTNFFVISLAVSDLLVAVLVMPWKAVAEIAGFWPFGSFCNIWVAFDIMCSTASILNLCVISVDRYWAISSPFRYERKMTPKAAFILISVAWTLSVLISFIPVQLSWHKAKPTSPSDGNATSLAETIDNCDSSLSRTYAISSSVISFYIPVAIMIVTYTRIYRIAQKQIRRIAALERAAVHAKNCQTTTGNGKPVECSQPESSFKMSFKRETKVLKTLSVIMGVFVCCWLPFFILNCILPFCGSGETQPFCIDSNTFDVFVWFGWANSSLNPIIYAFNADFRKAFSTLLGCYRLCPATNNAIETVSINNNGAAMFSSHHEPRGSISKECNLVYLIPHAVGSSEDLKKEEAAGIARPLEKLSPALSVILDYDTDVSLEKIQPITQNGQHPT
Chain of D5 (P21918 whole entry): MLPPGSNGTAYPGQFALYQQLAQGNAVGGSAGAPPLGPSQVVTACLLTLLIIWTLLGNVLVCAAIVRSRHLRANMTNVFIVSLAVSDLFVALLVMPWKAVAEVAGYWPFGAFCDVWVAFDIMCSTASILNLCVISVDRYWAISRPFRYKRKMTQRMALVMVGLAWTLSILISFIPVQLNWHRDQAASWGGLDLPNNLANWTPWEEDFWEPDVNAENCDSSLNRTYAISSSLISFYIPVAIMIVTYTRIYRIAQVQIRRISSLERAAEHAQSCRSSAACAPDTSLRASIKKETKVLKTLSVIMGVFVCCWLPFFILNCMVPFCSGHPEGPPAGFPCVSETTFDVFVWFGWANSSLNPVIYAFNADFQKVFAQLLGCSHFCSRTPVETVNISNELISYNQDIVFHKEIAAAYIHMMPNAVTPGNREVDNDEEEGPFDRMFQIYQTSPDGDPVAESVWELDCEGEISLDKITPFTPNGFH
Chain of D2 dopamine receptor (P14416 whole entry): as the sequence (P14416 whole entry) above

Regarding `CC(C)C[C@H](CN)CC(=O)O` [pregabalin, reference compound], the “effect in capsaicin model, positive control compared with Example 67 at 1 mg/kg” value in data set [1] (rat, 30 mg/kg) is on record as “equivalent in magnitude”.
Take `CCCN1C[C@@H](c2ccc(N)nc2)OC[C@@H]1C` [Example 67, 5-[(2R,5S)-5-methyl-4-propylmorpholin-2-yl]pyridin-2-amine]: the “efficacy in hotplate model (paw withdrawal latency)” value in [2] (rat, oral 0.01, 0.03, 0.1 and 1.0 mg/kg, hotplate 52° C.) is “no efficacy”. The “Minimum Effective Dose, hotplate paw withdrawal latency” value in [2] (rats, oral) is on record as “No effect up to 1.0 mg/kg oral”. The “Minimum Effective Dose, CCI-induced static and dynamic allodynia” value in [3] (oral) is given as “No effect up to 0.1 mg/kg oral”. For the same compound, the “effect on CCI-induced static and dynamic allodynia” value in [3] (oral 0.1 mg/kg) is on record as “no effects”. Also, the EC50 in [4] is more than 10 µM; in data set [11] it was 3.9 µM. For the same compound, the “% Response @ 10 μM, D2” value in data set [4] (10 μM, response as percentage of the effect to pramipexole, (95% CI)) was “% Response @ 10 μM = 36 (19-56)”. Besides, in data set [5], the “oral dose giving maximal effect on surgery-induced allodynia” value turned out to be 0.1 mg/kg. The “reversal of surgery-induced static and dynamic allodynia” value in data set [5] (oral) is listed as “dose-dependent reversal”. Besides, the 50% inhibitory concentration (IC50) in [6], in data set [7] and in data set [14] was more than 10 µM throughout. Also, the “functional selectivity for D3 over D2” value in data set [8] is more than 470 fold. Moreover, the maximal effect (Emax) in data set [8] (D3, CHO cells, full agonist, normalised to pramipexole, read-out: % Emax) was found to be 95%; in [8] (forskolin-stimulated cAMP accumulation, (95% CI), read-out: % Emax, D3) it was 95%; in data set [11] (forskolin-stimulated cAMP accumulation, (95% CI)) it was 92%. The “functional selectivity over D4 dopamine receptor” value in [8] (D3 versus D4, cAMP) was 180 fold. Moreover, the “peak free-plasma concentration / predicted free-plasma exposure” value in data set [9] (oral 0.1 mg/kg) was 10 nM; in [9] (oral 0.1 mg/kg, listed as 5-[(2R,5S)-5-methyl-4-propylmorpholin-2-yl]pyridin-2-amine), “approximately 10 nM”. For the same compound, in data set [9] (rats, 0.01 mg/kg oral), the “measured mean free Cmax for MED, MIA-induced static allodynia” value came to 1.85 nM. Besides, the free plasma concentration in [9] (rats, oral 0.01 mg/kg) is 1.85 nM; in data set [9] (rats, oral 0.03 mg/kg) it was 5.70 nM; in [9] (rats, oral 0.1 mg/kg) it was 10.77 nM. In addition, the “Minimum Effective Dose, MIA-induced weight deficit” value in [10] (oral, single-dose study) is listed as 0.1 mg/kg oral single-dose study. Also, the “efficacy on weight-bearing deficit following MIA injection” value in [10] (single dose 0.1 mg/kg) is “efficacy similar to optimal opioid treatment”. Further, the Ki in data set [12] came to 4.16 µM; in [15], 0.215 µM. In addition, in [13] (oral), the “Minimum Effective Dose, MIA-induced static allodynia” value was 0.01 mg/kg. The “reversal of MIA-induced static allodynia” value in data set [13] (oral 0.1 mg/kg) is given as “full reversal”; in data set [13] (oral 0.01, 0.03 and 0.1 mg/kg), “dose response in reversal of the allodynia”. Besides, the “binding selectivity over D2 dopamine receptor” value in [15] (D3 versus D2 binding) was more than 46 fold. Moreover, the “Minimum Effective Dose, capsaicin-induced hyperalgesia” value in data set [1] (oral) is 0.01 mg/kg oral. For the same compound, in data set [1] (rat, oral pre-dosing), the “dose giving optimal effect in capsaicin model” value stood at 1 mg/kg. For the same compound, the “effect on capsaicin-induced static and dynamic allodynia” value in data set [1] (rat, oral pre-dosing 0.01, 0.1 and 1 mg/kg, capsaicin 1 hour after dosing) is “dose response”.
In the case of `N#Cc1ccc2c(c1)CCN(CCC1CCC(NC(=O)c3ccnc4ccccc34)CC1)C2` (stereo not drawn) [quinoline-4-carboxylic acid (4-[2-(6-cyano-3,4-dihydro-1H-isoquinolin-2-yl)ethyl]cyclohexyl)-amide, reference compound], the “effect of 0.1 mg/kg of the compound of Example 67 on MIA allodynia after D3 antagonist” value in data set [13] (antagonist oral 3 mg/kg) is “abolished”.
For `COc1cccc(C2(O)CCCCC2CN(C)C)c1` (stereo not drawn) [tramadol, reference compound], the “reversal of MIA-induced static allodynia, positive control” value in [13] (100 mg/kg) was “full reversal”.
`CCCN1CCO[C@H](c2cccc(O)c2)C1.Cl` [Example 8, R-(−)-3-(4-Propylmorpholin-2-yl)phenol hydrochloride]: in [8], it took 0.0076 µM to reach a half-maximal effect (EC50) and the “functional selectivity for D3 over D2” value came to 1315.8 fold.
